# Measured values as given in US20250221981A1, “MAT2A INHIBITOR AND/OR TSG101 INHIBITOR FOR USE IN ANTIVIRAL THERAPY” (CAMBRIDGE ENTERPRISE LIMITED, priority 2022, published 2025).
# Key:
# [1] = tested on: BKPyV; assay: Western blot of BKPyV viral protein expression (LTAg, VP1) in RPTE/TERT1 cells; format: cell-based, BK polyomavirus; details: MOI 1
# Protocol: (C)(i) Effect of PF-9366 on viral early and late gene and cellular MAT2A expression: Cells were infected with BKPyV (MOI 3) in media containing appropriate drug concentrations. At 1 hpi infectious media was removed, cells were washed and fresh media with appropriate drug concentrations was added. Cells were harvested at 48 hpi and a western blot performed. Membranes were blotted for viral late gene VP1, LTAg, cellular MAT2A/MAT1A, and tubulin as a loading control.
# (iii) Viral gene expression is modulated in response to PF-9366: The density of BKPyV VP1 and LTAg expression were measured, normalized to tubulin loading control (LiCor Image Studio Software), n=3.
# (§1) Cells were treated with MAT2A inhibitors at 1 hr post infection and were harvested at 48 hr post infection at MOI 1. (A) Total infectious BKPyV synthesis expressed as fold change to DMSO control (FFU titre assay). (B) Total viral protein expression (LTAg and VP1) was analysed by western blot. Tubulin was used as loading control. All error bars represent SEM. Two sample paired T-test was used to determine significance (*p<0.05; **p<0.01; ***p<0.001, ****p<0.0001), all numerical data shown were obtained over 2 independent experiments.
# (§2) RPTE/hTERT cells were treated with inhibitors at 1 hr post infection (PI), infected at MOI 1. (A) Viral growth curves using FFU titre assay in drug treated and untreated cells infected with BKPyV at MOI 1 for 48 hr PI, 72 hr PI and 96 hr PI. (B) Total viral protein expression (LTAg and VP1) from drug treatments and untreated control was analysed by western blot with samples harvested at 48 hr PI and 96 hr PI. Tubulin was used as loading control. All error bars represent SEM. All numerical data shown were obtained over 2 independent experiments.
# It has previously been noted by Quinlan et al. (Nat Chem Biol. 2017 13 (7): 785-792) that treatment with PF-9366 can increase MAT2A expression as a compensatory mechanism within cells. To investigate this, cells were once again treated with a range of PF-9366 for 3 hours prior to infection (or DMSO treated). Cells were infected with BKPyV (MOI 3), washed at 1 hpi, and fresh drug treated media was added. At 48 hpi cells were harvested and protein expression was analysed by western blotting (FIG. 3C(i)). MAT2A expression was quantified from band intensities, normalised to the tubulin loading control and plotted (FIG. 3C(ii), n=3). A clear increase in the cellular expression of MAT2A was observed, up to an 8-fold increase at 10 μM PF-9366. Western blot analysis was also conducted on early viral gene (LTAg) and late viral gene (VP1) expression (FIG. 3C(iii), n=3).
# Cell lysate preparation and western blots were performed as described in Ren et al. (J Gen Virol. 2012 February; 93 (Pt 2): 319-329). Primary antibodies used were ab53977 (VP1), PAb416 (LTAg), sc-166452 (MAT2A/1A), ab110226 (VP16), sc-53070 (ICP0), anti-Zika E Protein, and either anti-GAPDH or anti-tubulin as a loading control, followed by IRDye 680LT-, or IRDye 800CW-conjugated secondary antibodies. Imaging was performed using the LI-COR Odyssey Infrared Imaging system. Quantification was performed using LI-COR Image Studio Software.
# [2] = tested on: BKPyV; assay: Fluorescence focus unit (FFU) assay of infectious BKPyV from treated RPTE/TERT1 cells; format: cell-based, BK polyomavirus; details: added 1 hr post infection, MOI 1
# Protocol: (B) Effect of PF-9366 on viral replication: Cells were infected with BKPyV (MOI 1) in media containing appropriate drug concentrations. At 1 hpi infectious media was removed, cells were washed and fresh media with appropriate drug concentrations was added. At 48 hpi cells were harvested and infectious BKPyV was measured by FFU assay. n=3.
# as §1, §2
# The ability for PF-9366 to inhibit the production of infectious virus was then investigated. RPTE/TERT1 cells were once again treated with a concentration range of PF-9366 or DMSO as a control prior to infection, and as before, infected with BKPyV (MOI 1) then washed and media replaced at 1 hpi. At 48 hpi total virus was harvested from each condition and an FFU assay was conducted to determine BKPyV virus titre (FIG. 3B).
# For BKPyV infections, RPTE/TERT1, RPTE/TERT1-Cas9 or RPTE/TERT1 MAT2A KO cells were infected with BKPyV at either a multiplicity of infection (MOI) of 5 for growth curves or an MOI of 3 or 1 for all other experiments, diluted in appropriate medium. At 1 hour post infection (hpi) medium was removed, cells were washed twice with phosphate-buffered saline (PBS), and fresh medium was added with or without inhibitors. At 24, 48, 72 or 96 hpi cells were either harvested for western blot, RT qPCR or virus titre by FFU assay, or fixed for immunofluorescence analysis.
# FFU assays were used to determine the concentration of infectious BKPyV in experimental samples. RPTE/TERT1 cells were infected with sample dilutions, fixed at 48 hpi in 3% formaldehyde, and immunostained for VP1 expression as described in Evans et al. (Open Biol. 2015 August; 5 (8): 150041).
# Example 1: PF-9366 (Sigma-Aldrich) and AG-270 (kindly supplied by Astra Zeneca) were diluted in 100% DMSO. Cells were drug treated at a range of concentrations in REBM supplemented with BulletKit (Lonza) for 3 hours prior to infection. Cells were infected with BK-Dunlop in media and appropriate drug dilution. At 1 hpi infectious media was removed, cells gently washed with PBS and media containing appropriate drug dilutions was added. At 48 hpi cells were either fixed in 3% formaldehyde for microscopy, or harvested by scraping up into fresh drug-free media.
# TSG101 inhibitor Ilaprazole (Sigma-Aldrich) was diluted in 100% DMSO. Cells were treated at a range of inhibitor concentrations and combinations, in appropriate media for the cell type used, for either 3 hours prior to infection (HSV-1, Alphavirus and Flavivirus infections) or 1 hour post infection (BKPyV infection).
# [3] = tested on: RPTE/hTERT cells; assay: Cell viability assay, CellTiter-Blue fluorescence
# Protocol: RPTE/hTERT cells were treated with MAT2A inhibitors at increasing concentrations for 48 hrs and assayed for cell viability using CellTiter-Blue fluorescence. Experiments were conducted using biological triplicates.
# Experiment was conducted using biological triplicates.
# Cell viability was assessed using the Cell-Titer-Blue assay (Promega), following manufacturers guidelines.
# [4] = 125 nM to 1 μM, dose dependent, 48 hr post infection
Structure (SMILES),"early viral protein (LTAg) levels (western blot) [1, 4]","late viral protein (VP1) levels (western blot) [1, 4]","inhibition of BKPyV replication (total infectious BKPyV, FFU titre) ([2]; 125 nM, 250 nM, 500 nM and 1 μM, 48 hr post infection)","effect on cell viability and metabolism ([3]; at concentrations inhibiting BKPyV replication, 48 hrs)","BKPyV protein expression (LTAg and VP1, western blot) ([1]; Ilaprazole alone, 48 and 96 hr PI)",BKPyV viral replication (FFU titre) ([2]; Ilaprazole alone),"effect on cell viability ([3]; Ilaprazole alone, every 48 hr until 144 hr)"
CN(C)c1nc(=O)n(-c2ccccc2)c2cc(Cl)ccc12 [AZ28],reduced,reduced,significant dose dependent inhibition,little effect,,,
COc1ccnc(C[S+]([O-])c2nc3cc(-n4cccc4)ccc3[nH]2)c1C (stereo not shown) [Ilaprazole],,,,,significantly inhibit,significantly inhibit,little effect
